In patent publication US20230045112A1, “DISULFIRAM AND OTHER REDOX-RELATED COMPOSITIONS FOR BRAIN TUMORS” (Texas Tech University System, priority 2014, published 2023):

Assays:
[1] = molecular target: T1, rMGMT (Homo sapiens, UniProt P16455); assay: In vitro degradation of DSF treated rMGMT in rabbit reticulocyte lysates; type: biochemical
T1 construct: hexa-histidine; made in house; host or cells: E. coli
T1 sequence (P16455 1-207): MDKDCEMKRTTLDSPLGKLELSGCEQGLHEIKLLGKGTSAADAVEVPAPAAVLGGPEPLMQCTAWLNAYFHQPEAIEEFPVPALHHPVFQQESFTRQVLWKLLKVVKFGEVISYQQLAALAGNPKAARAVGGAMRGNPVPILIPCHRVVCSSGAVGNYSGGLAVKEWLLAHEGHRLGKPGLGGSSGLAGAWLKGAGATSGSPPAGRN
Excerpt: DSF-exposed MGMT samples were dialyzed to remove the residual drug prior to the degradation assays. […] The protein bands were quantified by densitometry.
The samples were immunoblotted and probed with MGMT antibodies (right panel). The densitometric quantitation of protein bands on the western blots is shown as a line graph on the left. […] Cell lysates were western blotted for the MGMT protein. […] Kinetics of DNA interstrand crosslinks formed in UW228 cells after treatment with […] BCNU or […] melphalan is shown. […] They were then exposed to BCNU or melphalan. At times specified, the cells were harvested, DNA isolated and the extent of interstrand crosslinking of DNA was determined using the ethidium bromide fluorescence assay. Values are mean+S.D. The results were significant at P<0.05. […] The cells were trypsinized at times indicated and analyzed by flow cytometry.
Since the MGMT inactivated by BG is degraded through ub-proteolysis, it was of interest to investigate the mode of elimination of DSF-modified MGMT protein. Therefore, first, we compared the in vitro degradation of DSF-treated and untreated rMGMT protein in rabbit reticulocyte lysates (RL), which are known to promote the proteasomal degradation. The control and DSF-modified MGMT proteins were incubated with RL in the presence of Mg++, ATP and ubiquitin at 37° C. The reaction mixtures were blotted and probed with MGMT antibodies. […] To show the involvement of the ub-proteolysis in cells a clinically used proteasome inhibitor. […] Taken together, the results presented in FIGS. 4A-4B confirm that DSF-modified MGMT is perceived as a structurally altered/damaged protein in cells and eliminated through the ub-proteasomal route.

[2] = tested on: U87 malignant glioma cells; assay: MTT cell survival assay, MGMT-deficient cells; type: cell-based, human; conditions: DSF-pretreated U87 cells lacking MGMT expression
Method: These were performed using the yellow tetrazolium dye (3-(4, 5-dimethylthiazolyl-2)-2, 5-diphenyl tetrazolium bromide) (MTT) as described previously. […] The purple color developed due to formazan was measured at 570 nm using a […]luor Plus plate reader (Tecan Inc.). Cell proliferation was also assessed by colony formation assays on soft agar.
Cells were then cultured for 48 hours before performing the MTT assays. […] The effect of drugs on cell survival was computed at each concentration. The data represents the results of three independent experiments performed in triplicate. Values are mean+S.D. The results presented in panels B, C and G (at 25-75 μM BCNU and 250-750 temozolomide) were significant at P<0.05. *, indicates statistically significant difference as compared to controls.

[3] = molecular target: T2, MGMT (Mus musculus, UniProt P26187); assay: MGMT activity in mouse brain and liver after DSF administration; type: in vivo, mice; conditions: single dose 150 mg/kg i.p., 9-12 hours
T2 construct: from tissue; host or cells: mouse brain and liver
Excerpt: Control mice received DMSO alone.
Error bars indicate SD. […] The overall findings of the present study are summarized.

T2 sequence (P26187 whole entry): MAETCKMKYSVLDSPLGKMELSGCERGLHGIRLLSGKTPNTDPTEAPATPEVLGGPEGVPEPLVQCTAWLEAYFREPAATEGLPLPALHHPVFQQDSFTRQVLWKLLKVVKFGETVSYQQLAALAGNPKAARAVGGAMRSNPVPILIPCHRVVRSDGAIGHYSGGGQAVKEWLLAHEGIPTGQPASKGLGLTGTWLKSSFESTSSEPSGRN

CCN(CC)C(=S)SSC(=S)N(CC)CC [DSF, 1,1′,1″,1′″-[disulfanediylbis(carbonothioylnitrilo)]tetraethane]
disappearance of DSF-modified rMGMT protein ([1]; 10 minutes of incubation): 30% | disappearance of DSF-modified rMGMT protein ([1]; 25 minutes of incubation): 45% | disappearance of DSF-modified rMGMT protein ([1]; 40 minutes of incubation): 70% | effect on cell killing by TMZ or BCNU [2]: did not increase the extent of cell killing by TMZ or BCNU | decrease of MGMT repair activity in brain [3]: 40%
